Results taken from patent US6407265B2, “Tin polyoxaalkanecarboxylates and compositions containing them” (priority 1998, dated 2002).
Converted amounts (≈) assume the structure as drawn.

Experiments:
IGROV (ovarian cancer) = format: cell-based, human; details: in vitro, IGROV ovarian cancer cell line
[1] = test system: H226 (non small cell lung cancer); format: cell-based, human; details: in vitro, H226 non small cell lung cancer cell line
EVSA-T (mammary cancer) = format: cell-based, human; details: in vitro, EVSA-T mammary cancer cell line
From the text: (§1) The ID50 inhibition doses in ng/ml of the tested compounds are given in the table as well as those for some known reference compounds.

A 498 (renal cancer) = format: cell-based, human; details: in vitro, A 498 renal cancer cell line
MCF-7 (mammary cancer) = format: cell-based, human; details: in vitro, MCF-7 mammary cancer cell line
From the text: as §1

WiDr (colon carcinoma) = format: cell-based, human; details: in vitro, WiDr colon carcinoma cell line
M19 MEL (melanoma) = format: cell-based, human; details: in vitro, M19 MEL melanoma cell line
[2] = Stability in the presence of water (117Sn NMR); format: physicochemical; details: CD3CD2OD solution, increasing amounts of D2O added, resonance regularly slightly shifted
Method: The stability in the presence of water of four compounds, 6, 8, 9 and 12, was determined.

| Compound | ID50 inhibition dose IGROV (IGROV (ovarian cancer)) | ID50 inhibition dose H226 [1] | ID50 inhibition dose EVSA-T (EVSA-T (mammary cancer)) | ID50 inhibition dose A498 (A 498 (renal cancer)) | ID50 inhibition dose MCF-7 (MCF-7 (mammary cancer)) | ID50 inhibition dose WiDr (WiDr (colon carcinoma)) | ID50 inhibition dose M19 (M19 MEL (melanoma)) | Stability in the presence of water [2] |
| --- | --- | --- | --- | --- | --- | --- | --- | --- |
| bis[di-n-butyl(3,6,9-trioxadecanoato)tin]oxide [Compound 15] | <0.003 µg/mL | <0.003 µg/mL | <0.003 µg/mL | <0.003 µg/mL | <0.003 µg/mL | 0.003 µg/mL | <0.003 µg/mL | – |
| CCC[CH2][Sn]([CH2]CCC)([O]C(=O)COCCOC)[O]C(=O)COCCOC [Compound 10, di-n-butyltin bis(3,6-diheptanoate)] | 0.128 µg/mL | 0.161 µg/mL | 0.062 µg/mL | 0.134 µg/mL | 0.06 µg/mL | 0.379 µg/mL | 0.115 µg/mL | – |
| COc1cccc2c1C(=O)c1c(O)c3c(c(O)c1C2=O)C[C@@](O)(C(=O)CO)C[C@@H]3O[C@H]1C[C@H](N)[C@H](O)[C@H](C)O1 [doxorubicin, reference compound] | 0.06 µg/mL (≈ 0.11 µM) | 0.199 µg/mL (≈ 0.366 µM) | 0.008 µg/mL (≈ 0.0147 µM) | 0.09 µg/mL (≈ 0.166 µM) | 0.01 µg/mL (≈ 0.0184 µM) | 0.011 µg/mL (≈ 0.0202 µM) | 0.016 µg/mL (≈ 0.0294 µM) | – |
| di-n-butyltin bis (3,6,9-trioxadecanoate) [Compound 14] | 0.178 µg/mL | 0.28 µg/mL | 0.066 µg/mL | 0.145 µg/mL | 0.086 µg/mL | 0.495 µg/mL | 0.167 µg/mL | – |
| CCC[CH2][Sn]([CH2]CCC)([CH2]CCC)[O]C(=O)COCCOC [Compound 9, tri-n-butyltin 3,6-diheptanoate] | 0.084 µg/mL | 0.061 µg/mL | 0.04 µg/mL | 0.153 µg/mL | 0.032 µg/mL | 0.082 µg/mL | 0.09 µg/mL | single resonance |
| bis[di-n-butyl(3,6-dioxaheptanoato)tin]oxide [Compound 11] | <0.003 µg/mL | 0.005 µg/mL | <0.003 µg/mL | <0.003 µg/mL | <0.003 µg/mL | 0.006 µg/mL | <0.003 µg/mL | – |
| CCC[CH2][Sn+2][CH2]CCC.O=C([O-])c1ccc2c(c1)OCCOCCOCCOCCOCCO2.O=C([O-])c1ccc2c(c1)OCCOCCOCCOCCOCCO2 [Compound 3] | 0.26 µg/mL | 0.281 µg/mL | 0.128 µg/mL | 0.282 µg/mL | 0.155 µg/mL | 0.781 µg/mL | 0.219 µg/mL | – |
| O=C([O][Sn]([c]1ccccc1)([c]1ccccc1)[c]1ccccc1)c1ccc2c(c1)OCCOCCOCCOCCOCCO2 [Compound 1, triphenyltin 4,7,10,13,16,19-hexaoxadicyclo[16.4.0]dicosa-1,3 (20),21-triene-1-carboxylate] | 0.03 µg/mL | 0.037 µg/mL | 0.012 µg/mL | 0.043 µg/mL | 0.015 µg/mL | 0.013 µg/mL | 0.016 µg/mL | – |
| O=c1[nH]cc(F)c(=O)[nH]1 [5-fluoro-uracil, reference compound] | 0.297 µg/mL (≈ 2.28 µM) | 0.34 µg/mL (≈ 2.61 µM) | 0.475 µg/mL (≈ 3.65 µM) | 0.143 µg/mL (≈ 1.1 µM) | 0.75 µg/mL (≈ 5.77 µM) | 0.225 µg/mL (≈ 1.73 µM) | 0.442 µg/mL (≈ 3.4 µM) | – |
| O=C([O][Sn]([c]1ccccc1)([c]1ccccc1)[c]1ccccc1)c1ccc2c(c1)OCCOCCOCCOCCO2 [Compound 5, triphenyltin 4,7,10,13,16-pentaoxadicyclo[13.4.0]cosa-1,3 (17),18-triene-1-carboxylate] | <0.003 µg/mL | <0.003 µg/mL | <0.003 µg/mL | <0.003 µg/mL | <0.003 µg/mL | <0.003 µg/mL | <0.003 µg/mL | – |
| N.N.[Cl][Pt][Cl] [cisplatin, reference compound] | 0.169 µg/mL | 3.269 µg/mL | 0.422 µg/mL | 2.253 µg/mL | 0.699 µg/mL | 0.967 µg/mL | 0.558 µg/mL | – |
| CCC[CH2][Sn]([CH2]CCC)([CH2]CCC)[O]C(=O)c1ccc2c(c1)OCCOCCOCCOCCO2 [Compound 6, tri-n-butyltin 4,7,10,13,16-pentaoxadicyclo[13.4.0]cosa-1,3 (17),18-triene-1-carboxylate] | <0.003 µg/mL | <0.003 µg/mL | <0.003 µg/mL | <0.003 µg/mL | <0.003 µg/mL | <0.003 µg/mL | <0.003 µg/mL | single resonance |
| COCCOCC(=O)[O][Sn]([c]1ccccc1)([c]1ccccc1)[c]1ccccc1 [Compound 8, triphenyltin 3,6-diheptanoate] | 0.037 µg/mL | 0.033 µg/mL | 0.012 µg/mL | 0.032 µg/mL | 0.013 µg/mL | 0.034 µg/mL | 0.031 µg/mL | single resonance |
| COc1cc([C@@H]2c3cc4c(cc3[C@@H](O[C@@H]3O[C@@H]5CO[C@@H](C)O[C@H]5[C@H](O)[C@H]3O)[C@H]3COC(=O)[C@H]23)OCO4)cc(OC)c1O [etoposide, reference compound] | 0.58 µg/mL (≈ 0.985 µM) | 3.934 µg/mL (≈ 6.68 µM) | – | 1.314 µg/mL (≈ 2.23 µM) | – | 0.15 µg/mL (≈ 0.255 µM) | 0.505 µg/mL (≈ 0.858 µM) | – |
| bis{di-n-butyl-[4,7,10,13,16,19-hexaoxadicyclo[16.4.0]dicosa-1,3(20),21-triene-1-carboxylato]tin}oxide [Compound 4] | 0.082 µg/mL | 0.073 µg/mL | 0.046 µg/mL | 0.126 µg/mL | 0.036 µg/mL | 0.239 µg/mL | 0.068 µg/mL | – |
| triphenyltin 3,6,9-trioxadecanoate [Compound 12] | 0.033 µg/mL | 0.025 µg/mL | 0.009 µg/mL | 0.021 µg/mL | 0.009 µg/mL | 0.019 µg/mL | 0.024 µg/mL | single resonance |
| CCC[CH2][Sn]([CH2]CCC)([CH2]CCC)[O]C(=O)c1ccc2c(c1)OCCOCCOCCOCCOCCO2 [Compound 2, tri-n-butyltin 4,7,10,13,16,19-hexaoxadicyclo[16.4.0]dicosa-1,3(20),21-triene-1-carboxylate] | 0.03 µg/mL | 0.1 µg/mL | 0.006 µg/mL | 0.097 µg/mL | 0.035 µg/mL | 0.011 µg/mL | 0.07 µg/mL | – |
| CCC[CH2][Sn]([CH2]CCC)([O]C(=O)c1ccc2c(c1)OCCOCCOCCOCCO2)[O]C(=O)c1ccc2c(c1)OCCOCCOCCOCCO2 [Compound 7, di-n-butyltin bis[4,7,10,13,16-pentaoxadicyclo[13.4.0]cosa-1,3(17),18-triene-1-carboxylate]] | 0.321 µg/mL | 0.854 µg/mL | 0.237 µg/mL | 0.049 µg/mL | 0.273 µg/mL | 0.332 µg/mL | 0.286 µg/mL | – |
| CN(Cc1cnc2nc(N)nc(N)c2n1)c1ccc(C(=O)N[C@@H](CCC(=O)O)C(=O)O)cc1 [methotrexate, reference compound] | 0.007 µg/mL (≈ 0.0154 µM) | 2.287 µg/mL (≈ 5.03 µM) | 0.005 µg/mL (≈ 0.011 µM) | 0.037 µg/mL (≈ 0.0814 µM) | 0.018 µg/mL (≈ 0.0396 µM) | <0.003 µg/mL | 0.023 µg/mL (≈ 0.0506 µM) | – |
